The source of these data is PMC11284789, “Biomimetic Analogues of the Desferrioxamine E Siderophore for PET Imaging of Invasive Aspergillosis: Targeting Properties and Species Specificity” (Journal of Medicinal Chemistry, 2024).

Data set [1] has as its system A. fumigatus mutant strain ΔsidAΔftrA. Nature of the data set: Growth promotion assay (siderophore utilization), ΔsidAΔftrA. The data set is classed as cell-based, Aspergillus fumigatus. The settings on record: siderophores in ferri-form, 0.1, 1.0, 10 and 50 μM; 48 h at 37 °C. Here is the method:
(§1) In order to investigate whether A. fumigatus is able to utilize the artificial FOX analogues in the iron form as an iron source, growth promotion assays were performed (Figure 2) using two A. fumigatus mutants. The mutant strain ΔsidAΔftrA is able to grow only in the presence of utilizable siderophores or ferrous iron concentration >3 mM.[10],[44] The second mutant, ΔsidAΔftrAΔsit1, additionally lacks the siderophore transporter Sit1, which exclusively mediates the uptake of ferrioxamine-type siderophores and is additionally involved in the uptake of ferrichrome-type and coprogen-type siderophores but not of FsC or TAFC.[19],[20] For growth promotion analysis, the mutants were spotted on iron-lacking media supplemented with different concentrations of siderophores. Control experiments confirmed the expected growth pattern: growth of ΔsidAΔftrA but not of ΔsidAΔftrAΔsit1 was promoted by supplementation with ferric FOXE; both mutant strains were able to grow in the presence of TAFC as uptake of this siderophore depends on MirB but not on Sit1; both mutant strains lacked growth without siderophore supplementation, and uninoculated media also lacked fungal growth. […] The utilization of iron from all artificial ferrioxamine analogues was mediated by Sit1 like that of natural ferrioxamine-type siderophores.[20]
Figure 2 Growth promotion analysis of FOX analogues. 10^4 conidia of A. fumigatus mutant strains ΔsidAΔftrA (A) and ΔsidAΔftrAΔsit1 (B) were point-inoculated for every condition. All natural and artificial siderophores were tested in the ferri-form in the concentrations 0.1, 1.0, 10, and 50 μM. As controls, TAFC, which is taken up in a Sit1-independent manner, and FOXE were included. Moreover, controls without siderophore supplementation with (+) or without (−) inoculation of conidia were included. Greenish coloration of the fungal colonies indicates asexual sporulation. Pictures were taken after 48 h of incubation at 37 °C. […]

Data set [2] deals with iron-starved (Fe(−)) A. fumigatus cultures. Nature of the data set: Short-term in vitro uptake of 68Ga-labeled siderophores. The data set is classed as cell-based, Aspergillus fumigatus. Conditions: paired t test, p < 0.01. Here is the method: To investigate the short-term active transport of ^68Ga-labeled FOXE analogues by A. fumigatus, iron-starved (Fe(−)) cultures were used (Figure 3). As a control, the same cultures were incubated with Fe(III)-FOXE beforehand to saturate and therefore block Sit1-mediated activity. A decrease in uptake upon Fe(III)-FOXE blocking underlines specific uptake by the same transporters recognizing FOXE.
Figure 3 Uptake of ^68Ga-labeled FOXE analogues by Fe(III)-FOXE-blocked and -unblocked iron-starved (Fe(−)) A. fumigatus cultures after 45 min of incubation. * indicates significant difference of blocking compared with nonblocking (mean of three independent experiments, paired t test, p < 0.01).
Uptake assays were performed in both iron-deficient and iron-sufficient A. fumigatus cultures as described previously.[55] The uptake of each [^68Ga]Ga(III)-FOXE derivative was expressed as the ratio to [^68Ga]Ga(III)-FOXE uptake from the same experiment in order to normalize uptake variations between different fungal cultures. The mean values of three different assays were used to quantitatively compare the difference in uptake between the compounds.

Details of data set [3]: method as in earlier work. Conditions: cited from earlier work; for logβ Ga(III)L: T = 25 °C, I = 0.1 M NaClO4, M:L 1:1; for pGa(III): calculated for [L] = 1 × 10−4 [M] = 1 × 10−5 at pH 7.4.
The conditions of data set [4]: cited from earlier work.
The subject of data set [5] is A. fumigatus mutant strain ΔsidAΔftrAΔsit1. Nature of the data set: Growth promotion assay (siderophore utilization), Sit1-lacking ΔsidAΔftrAΔsit1. Type of data set: cell-based, Aspergillus fumigatus. The settings on record: siderophores in ferri-form, 0.1, 1.0, 10 and 50 μM; 48 h at 37 °C. The protocol: as §1
Figure 2 Growth promotion analysis of FOX analogues. […]

The subject of the next data set is S. aureus cultures. Details: method as in PMID 34783539. Conditions: 68Ga-labeled, iron-deficient cultures; cited from earlier work.

Where two headings read alike, the source gives them in different places.

Regarding `O=C1CCN(O)C(=O)CCNC(=O)CCN(O)C(=O)CCNC(=O)CCN(O)C(=O)CCN1` [FOX 2–2], the “growth promotion of ΔsidAΔftrA” value in data set [1] is “very limited growth promotion only at the highest tested concentration of 50 μM”. Also, the “difference between Fe(III)-FOXE-blocked and -unblocked uptake” value in data set [2] is given as “statistically insignificant”. Besides, in data set [3], the “logβ Ga(III)L” value is given as 26.44(5) and the “pGa(III)” value is recorded as 21.4. The “logβ Fe(III)L” value in data set [4] (T = 25 °C, I = 0.1 M NaClO4, M:L 1:1) is 25.92(8). Besides, the “pFe(III)” value in data set [4] (calculated for [L] = 1 × 10−4 [M] = 1 × 10−5 at pH 7.4) is given as 21.5.

As to `O=C1CCC(=O)N(O)CCCCCNC(=O)CCC(=O)N(O)CCCCCNC(=O)CCC(=O)N(O)CCCCCN1` [FOXE, ferrioxamine E], the “growth promotion of ΔsidAΔftrA” value in data set [1] is on record as “promoted”. Moreover, in data set [3], the “logβ Ga(III)L” value was 29.79(1) and the “pGa(III)” value is listed as 25.2. The “logβ Fe(III)L” value in data set [4] (ref Reference2) was 32.21(4). The “growth of ΔsidAΔftrAΔsit1 (Sit1 dependence)” value in data set [5] is recorded as “not”. Besides, the “uptake (radioactivity level) in S. aureus cultures” value in the data set with S. aureus cultures was “high radioactivity levels”.

Take triacetylfusarinine C [TAFC]: the “growth promotion of ΔsidAΔftrA” value in data set [1] was “able to grow”. In addition, the “growth of ΔsidAΔftrAΔsit1 (Sit1 dependence)” value in data set [5] is listed as “able to grow”.
